Measurements as given in PMC11822212, “High-throughput screening identifies Aurora kinase B as a critical therapeutic target for Merkel cell carcinoma” (Nature Communications, 2025).
Like-named read-outs stand apart in the source and are kept apart here.

How the values were obtained:
[1] = test system: VN-MCC cell lines (MCC13, MCC26, UISO); experiment: qHTS cell viability, VN-MCC cell lines as a group (mean AUC, VN.MCC.avg); type: cell-based, human
MKL-2 cells (VP-MCC) = experiment: qHTS cell viability (CellTiter-Glo, 72 h; primary and follow-up small molecule screen); type: cell-based, human
UISO cells (VN-MCC) = experiment: as above; type: cell-based, human
MKL-1 cells (VP-MCC) = experiment: as above; type: cell-based, human
HACAT cells = experiment: qHTS cell viability (CellTiter-Glo, 72 h; primary screen), control cell line; type: cell-based, human
MCC13 cells (VN-MCC) = experiment: qHTS cell viability (CellTiter-Glo, 72 h; primary and follow-up small molecule screen); type: cell-based, human
[2] = test system: VP-MCC cell lines (WAGA, MKL-1, MKL-2); experiment: qHTS cell viability, VP-MCC cell lines as a group (mean AUC, VP.MCC.avg); type: cell-based, human
MCC26 cells (VN-MCC) = experiment: qHTS cell viability (CellTiter-Glo, 72 h; primary and follow-up small molecule screen); type: cell-based, human
[3] = test system: MCC cell lines (WAGA, MKL-1, MKL-2, MCC13, MCC26, UISO); experiment: qHTS cell viability, all six MCC cell lines as a group (mean AUC, MCC.avg); type: cell-based, human
NIH-3T3 cells = experiment: qHTS cell viability (CellTiter-Glo, 72 h; primary screen), control cell line; type: cell-based, mouse
WAGA cells (VP-MCC) = experiment: qHTS cell viability (CellTiter-Glo, 72 h; primary and follow-up small molecule screen); type: cell-based, human
[4] = test system: control cell lines (HACAT, HEK293T, CRL-7250, NIH-3T3); experiment: qHTS cell viability, control cell lines as a group (mean AUC, Control.avg); type: cell-based
HEK293T cells = experiment: qHTS cell viability (CellTiter-Glo, 72 h; primary screen), control cell line; type: cell-based, human
[5] = test system: six MCC cell lines and four control cell lines; experiment: qHTS cell viability, all 10 cell lines screened; type: cell-based
CRL-7250 cells = experiment: qHTS cell viability (CellTiter-Glo, 72 h; primary screen), control cell line; type: cell-based
[6] = NPC library, mean AUC of VN-MCC cell lines
[7] = NPC library, qHTS dose-response AUC, MKL2
[8] = NPC library, qHTS dose-response AUC, UISO
[9] = NPC library, qHTS dose-response AUC, MKL1
[10] = NPC library, qHTS dose-response AUC, HACAT control
[11] = NPC library, qHTS dose-response AUC, MCC13
[12] = NPC library, mean AUC of VP-MCC cell lines
[13] = NPC library, mean AUC of six MCC cell lines
[14] = NPC library, qHTS dose-response AUC, NIH3T3 control
[15] = NPC library, qHTS dose-response AUC, WAGA
[16] = NPC library, mean AUC of control cell lines
[17] = NPC library, qHTS dose-response AUC, CRL7250 control
[18] = NPC library, 8-point DRC, area under dose-response curve
[19] = NPC library, 8-point DRC, control cell line

## Cl.Cl.Fc1ccc(C(OCCN2CCN(CCCc3ccccc3)CC2)c2ccc(F)cc2)cc1 [GBR 12909 dihydrochloride]
[1]; [6]
  VN-MCC_Avg_AUC: 408.55
[1]; NPC library, therapeutic window: Control avg AUC minus VN-MCC avg AUC
  Control-VN-MCC: 35.8586
MKL-2 cells (VP-MCC); [7]
  MKL2_AUC: 375.344
UISO cells (VN-MCC); [8]
  UISO_AUC: 384.769
MKL-1 cells (VP-MCC); [9]
  MKL1_AUC: 403.123
HACAT cells; [10]
  HACAT_AUC: 461.158
MCC13 cells (VN-MCC); [11]
  MCC13_AUC: 436.239
[2]; [12]
  VP-MCC_Avg_AUC: 392.686
[2]; NPC library, therapeutic window: Control avg AUC minus VP-MCC avg AUC
  Control-VP-MCC: 51.7231
MCC26 cells (VN-MCC); NPC library; qHTS dose-response AUC, MCC26
  MCC26_AUC: 404.643
[3]; [13]
  MCC_Avg_AUC: 400.618
NIH-3T3 cells; [14]
  NIH3T3_AUC: 436.091
WAGA cells (VP-MCC); [15]
  WAGA_AUC: 399.59
[4]; [16]
  Control_Avg_AUC: 444.409
HEK293T cells; NPC library; qHTS dose-response AUC, HEK293T control
  HEK293T_AUC: 425.616
[5]; NPC library, therapeutic window: Control avg AUC minus MCC avg AUC
  Control-MCC: 43.7909
CRL-7250 cells; [17]
  CRL7250_AUC: 454.771

## Nc1ccc(C(=O)NCC(=O)O)cc1 [Aminohippuric acid]
[1]; Control AUC minus VN-MCC AUC
  Control-VN-MCC: 57.9205
[1]; NPC library, Control AUC minus VN-MCC AUC (therapeutic window)
  Control-VN-MCC: 57.9205
[1]; [6]
  VN-MCC_Avg_AUC: 412.211
MKL-2 cells (VP-MCC); [18]
  MKL2_AUC: 407.303
MKL-2 cells (VP-MCC); [7]
  MKL2_AUC: 407.303
MKL-2 cells (VP-MCC); area under the dose-response curve, MKL-2 cells, AUC<450 = reduced viability
  MKL2_AUC: 407.303
UISO cells (VN-MCC); [18]
  UISO_AUC: 434.505
UISO cells (VN-MCC); [8]
  UISO_AUC: 434.505
UISO cells (VN-MCC); area under the dose-response curve, UISO cells, AUC<450 = reduced viability
  UISO_AUC: 434.505
MKL-1 cells (VP-MCC); [18]
  MKL1_AUC: 395.372
MKL-1 cells (VP-MCC); [9]
  MKL1_AUC: 395.372
MKL-1 cells (VP-MCC); {}
  MKL1_AUC: 395.372
HACAT cells; [19]
  HACAT_AUC: 481.404
HACAT cells; [10]
  HACAT_AUC: 481.404
HACAT cells; area under the dose-response curve, HACAT control cells, AUC<450 = reduced viability
  HACAT_AUC: 481.404
MCC13 cells (VN-MCC); [18]
  MCC13_AUC: 391.573
MCC13 cells (VN-MCC); [11]
  MCC13_AUC: 391.574
MCC13 cells (VN-MCC); area under the dose-response curve, MCC13 cells, AUC<450 = reduced viability
  MCC13_AUC: 391.574
[2]; Control AUC minus VP-MCC AUC
  Control-VP-MCC: 53.2142
[2]; NPC library, Control AUC minus VP-MCC AUC (therapeutic window)
  Control-VP-MCC: 53.2142
[2]; [12]
  VP-MCC_Avg_AUC: 416.917
MCC26 cells (VN-MCC); [18]
  MCC26_AUC: 410.554
MCC26 cells (VN-MCC); NPC library, qHTS dose-response AUC, MCC26
  MCC26_AUC: 410.554
MCC26 cells (VN-MCC); area under the dose-response curve, MCC26 cells; AUC<450 = reduced viability
  MCC26_AUC: 410.554
[3]; NPC library, mean AUC of all 6 MCC cell lines
  MCC_Avg_AUC: 414.564
[3]; [13]
  MCC_Avg_AUC: 414.564
NIH-3T3 cells; [19]
  NIH3T3_AUC: 454.303
NIH-3T3 cells; [14]
  NIH3T3_AUC: 454.303
NIH-3T3 cells; area under the dose-response curve, NIH3T3 control cells, AUC<450 = reduced viability
  NIH3T3_AUC: 454.303
WAGA cells (VP-MCC); [18]
  WAGA_AUC: 448.077
WAGA cells (VP-MCC); [15]
  WAGA_AUC: 448.077
WAGA cells (VP-MCC); area under the dose-response curve, WAGA cells, AUC<450 = reduced viability
  WAGA_AUC: 448.077
[4]; [16]
  Control_Avg_AUC: 470.131
HEK293T cells; [19]
  HEK293T_AUC: 467.378
HEK293T cells; NPC library, qHTS dose-response AUC, HEK293T control
  HEK293T_AUC: 467.377
HEK293T cells; area under the dose-response curve, HEK293T control cells; AUC<450 = reduced viability
  HEK293T_AUC: 467.377
[5]; NPC library, Control AUC minus MCC AUC (therapeutic window)
  Control-MCC: 55.5673
CRL-7250 cells; [19]
  CRL7250_AUC: 477.44
CRL-7250 cells; [17]
  CRL7250_AUC: 477.44
CRL-7250 cells; area under the dose-response curve, CRL7250 control cells, AUC<450 = reduced viability
  CRL7250_AUC: 477.44

## CNC(C)Cc1ccc2c(c1)OCO2.Cl (stereo not shown)
[1]
  Control-VN-MCC: 53.7607
  VN-MCC_Avg_AUC: 436.031
MKL-2 cells (VP-MCC)
  MKL2_AUC: 446.935
UISO cells (VN-MCC)
  UISO_AUC: 441.906
MKL-1 cells (VP-MCC)
  MKL1_AUC: 436.372
HACAT cells
  HACAT_AUC: 490.316
MCC13 cells (VN-MCC)
  MCC13_AUC: 451.345
[2]
  Control-VP-MCC: 54.4283
  VP-MCC_Avg_AUC: 435.364
MCC26 cells (VN-MCC)
  MCC26_AUC: 414.843
[3]
  MCC_Avg_AUC: 435.698
NIH-3T3 cells
  NIH3T3_AUC: 493.81
WAGA cells (VP-MCC)
  WAGA_AUC: 422.784
[4]
  Control_Avg_AUC: 489.792
HEK293T cells
  HEK293T_AUC: 483.458
[5]
  Control-MCC: 54.0945
CRL-7250 cells
  CRL7250_AUC: 491.585

## CCCN(CCC)CCc1c[nH]c2ccccc12.Cl [N,N-Dipropyltryptamine hydrochloride]
[1]
  Control-VN-MCC: 47.3665
  VN-MCC_Avg_AUC: 431.8
MKL-2 cells (VP-MCC)
  MKL2_AUC: 402.2
UISO cells (VN-MCC)
  UISO_AUC: 424.523
MKL-1 cells (VP-MCC)
  MKL1_AUC: 391.099
HACAT cells
  HACAT_AUC: 490.19
MCC13 cells (VN-MCC)
  MCC13_AUC: 455.096
[2]
  Control-VP-MCC: 69.8085
  VP-MCC_Avg_AUC: 409.358
MCC26 cells (VN-MCC)
  MCC26_AUC: 415.779
[3]
  MCC_Avg_AUC: 420.579
NIH-3T3 cells
  NIH3T3_AUC: 481.316
WAGA cells (VP-MCC)
  WAGA_AUC: 434.773
[4]
  Control_Avg_AUC: 479.166
HEK293T cells
  HEK293T_AUC: 447.306
[5]
  Control-MCC: 58.5875
CRL-7250 cells
  CRL7250_AUC: 497.853
